Assay results as given in ChEMBL document CHEMBL3886941 (2016).

target: Transient receptor potential M8 protein (Canis lupus familiaris, UniProt Q1A7N1); assay: Functional Assay: The functional activity of compounds of the formula (I) was determined by measuring changes in intracellular calcium concentration using a Ca2+-sensitive fluorescent dye. The changes in fluorescent signal were monitored by a fluorescence plate reader, either a FLIPR (Molecular Devices) or FDSS (Hamamatsu). Increases in intracellular Ca2+ concentration were readily detected upon activation with icilin.At 24 hrs prior to assay, HEK293 cells stably expressing canine TRPM8 were seeded in culture medium in black wall, clear-base poly-D-lysine coated 384-well plates (BD Biosciences, NJ, USA) and grown overnight in 5% CO2 at 37° C. On assay day, growth media was removed and cells were loaded with Calcium 3 Dye (Molecular Devices) for 35 min at 37° C., under 5% CO2 and then for 25 min at room temperature and atmosphere. Subsequently, cells were tested for agonist-induced increases in intracellular Ca2+ levels using FLIPR or FDSS. Cells were challenged with a compound of the Formula (I) (at varying concentrations) and intracellular Ca2+ was measured for 5 min prior to the addition of icilin to all wells to achieve a final concentration that produces approximately an 80% maximal response. EC50 or IC50 values for compounds of the present invention were determined from eight-point dose-response studies.; type: cell-based
Sequence (Q1A7N1 whole entry): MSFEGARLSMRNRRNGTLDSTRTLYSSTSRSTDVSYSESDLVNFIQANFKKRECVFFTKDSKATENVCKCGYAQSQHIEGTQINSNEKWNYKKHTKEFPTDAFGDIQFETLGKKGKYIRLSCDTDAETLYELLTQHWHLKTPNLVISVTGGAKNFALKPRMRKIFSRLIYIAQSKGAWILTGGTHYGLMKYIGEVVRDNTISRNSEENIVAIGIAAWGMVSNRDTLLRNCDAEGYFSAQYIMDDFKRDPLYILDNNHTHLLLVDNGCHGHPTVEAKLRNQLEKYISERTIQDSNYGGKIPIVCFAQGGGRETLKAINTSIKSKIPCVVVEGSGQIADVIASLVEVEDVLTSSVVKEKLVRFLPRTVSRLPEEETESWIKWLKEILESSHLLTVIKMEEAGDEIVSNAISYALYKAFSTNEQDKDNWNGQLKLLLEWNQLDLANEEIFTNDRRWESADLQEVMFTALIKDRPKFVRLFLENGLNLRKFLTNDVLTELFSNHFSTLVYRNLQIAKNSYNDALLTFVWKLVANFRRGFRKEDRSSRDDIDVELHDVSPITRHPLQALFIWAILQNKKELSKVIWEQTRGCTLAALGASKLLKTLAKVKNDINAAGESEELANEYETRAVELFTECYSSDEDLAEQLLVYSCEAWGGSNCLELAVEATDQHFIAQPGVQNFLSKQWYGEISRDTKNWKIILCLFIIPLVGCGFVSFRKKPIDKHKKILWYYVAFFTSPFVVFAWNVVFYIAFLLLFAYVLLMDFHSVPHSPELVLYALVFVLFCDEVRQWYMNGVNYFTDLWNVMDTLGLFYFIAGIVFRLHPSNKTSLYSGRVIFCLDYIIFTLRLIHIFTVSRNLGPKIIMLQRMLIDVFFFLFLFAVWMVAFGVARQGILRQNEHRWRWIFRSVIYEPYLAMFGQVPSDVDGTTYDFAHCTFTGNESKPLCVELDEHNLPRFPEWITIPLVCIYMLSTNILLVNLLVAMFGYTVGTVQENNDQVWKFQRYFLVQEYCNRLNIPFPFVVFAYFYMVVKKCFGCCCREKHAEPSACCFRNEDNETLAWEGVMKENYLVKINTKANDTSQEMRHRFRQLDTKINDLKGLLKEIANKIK

SMILES | IC50
O=S(=O)(c1ccccc1)N(CCc1ccccc1)c1sc2ccccc2c1Cl | 0.024 µM
Cc1c(N(Cc2ccc3c(c2)OC(F)(F)O3)S(=O)(=O)c2ccc(C(=O)O)cc2)sc2ccccc12 | 0.002 µM
O=[N+]([O-])c1cccc(CN(c2sc3ccccc3c2Br)S(=O)(=O)c2ccccc2)c1 | 0.0104 µM
CC(C)(C)OC(=O)N1CCCC1CN(c1sc2ccccc2c1Cl)S(=O)(=O)c1ccccc1 (centres undefined) | 0.205 µM
O=c1[nH]c(-c2ccc(S(=O)(=O)N(CCCCC(F)(F)F)c3sc4ccccc4c3Br)cc2)no1 | 0.0079 µM
COc1ccc(CN(c2sc3ccccc3c2C)S(=O)(=O)c2ccc(C(=O)O)cc2)cc1OC | 0.006 µM
Cc1c(N(Cc2ccccc2)S(=O)(=O)c2ccc(C(=O)O)cc2)sc2ccccc12 | 0.004 µM
CCS(=O)(=O)N(Cc1ccc(F)c(F)c1)c1sc2ccccc2c1C(C)=O | 0.015 µM
O=S(=O)(c1ccc(-c2nnn[nH]2)cc1)N(CCCCC(F)(F)F)c1sc2ccccc2c1Br | 0.0088 µM
O=S(=O)(c1cccs1)N(Cc1ccc(F)c(C(F)(F)F)c1)c1sc2ccccc2c1Cl | 0.006 µM
Cc1c(N(Cc2cc(Cl)ccc2Cl)S(=O)(=O)c2ccc(C(=O)O)cc2)sc2ccccc12 | 0.009 µM
CCS(=O)(=O)N(Cc1ccc(F)c(OC)c1)c1sc2ccccc2c1C(C)(C)O | 0.0041 µM
O=S(=O)(c1ccc(-c2nnn[nH]2)cc1)N(CCC1CC1)c1sc2ccccc2c1Br | 0.006 µM

More lines, now with the values ahead:

IC50 | SMILES
0.0181 µM | O=c1[nH]c(-c2ccc(S(=O)(=O)N(CCC(F)(F)F)c3sc4ccccc4c3Br)cc2)no1
0.053 µM | CCCN(c1sc2ccccc2c1C)S(=O)(=O)c1ccc(C(=O)O)cc1
0.038 µM | CCCCN(c1sc2ccccc2c1C(C)O)S(=O)(=O)CC (centres undefined)
0.019 µM | O=S(=O)(c1ccc(-c2nnn[nH]2)cc1)N(CCC(F)(F)F)c1sc2ccccc2c1Br
0.015 µM | O=S(=O)(CC(F)(F)F)N(Cc1ccc(F)c(C(F)(F)F)c1)c1sc2ccccc2c1CO
0.0241 µM | COC(=O)CCS(=O)(=O)N(CCC(F)(F)F)c1sc2ccccc2c1C
